According to ChEMBL document CHEMBL1137263, “Replacing the cyclohexene-linker of FR181157 leading to novel IP receptor agonists: orally active prostacyclin mimetics. Part 6” (Bioorg Med Chem Lett, 2006):

How the values were obtained:
[1] = Cmax in rat at 1 mg/kg, po; assay type: ADME, organism-based; design: dose 1 mg/kg, route oral; conditions: in vivo
[2] = Oral bioavailability in rat; assay type: ADME, organism-based; conditions: in vivo
[3] = AUC in rat at 1 mg/kg, po; assay type: ADME, organism-based; design: dose 1 mg/kg, route oral; conditions: plasma
Prostacyclin receptor = Prostacyclin receptor (Homo sapiens, UniProt P43119); test: Displacement of [3H]iloprost from cloned human PGI2 receptor
Prostacyclin receptor, sequence (P43119 whole entry): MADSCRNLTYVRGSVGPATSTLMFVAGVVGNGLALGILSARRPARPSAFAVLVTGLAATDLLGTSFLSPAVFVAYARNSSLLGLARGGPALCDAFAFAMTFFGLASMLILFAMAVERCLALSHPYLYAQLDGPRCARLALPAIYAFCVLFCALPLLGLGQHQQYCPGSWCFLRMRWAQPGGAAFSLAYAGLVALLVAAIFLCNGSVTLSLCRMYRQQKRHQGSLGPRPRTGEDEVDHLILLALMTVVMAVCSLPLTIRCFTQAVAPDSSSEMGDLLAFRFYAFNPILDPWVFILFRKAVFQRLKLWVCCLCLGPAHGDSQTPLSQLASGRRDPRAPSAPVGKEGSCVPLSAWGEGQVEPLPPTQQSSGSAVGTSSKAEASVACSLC

| Cmax [1] [ng/mL] | bioavailability [2] [%] | AUC [3] [ng·h/mL] | Ki (Prostacyclin receptor) [µM] | Compound |
| --- | --- | --- | --- | --- |
| 15.5 | 41 | 81.7 |  | Cl.O=C(O)COc1cccc(CN2CCC[C@@H]2c2nc(-c3ccccc3)c(-c3ccccc3)o2)c1 |
|  |  |  | 0.076 | O=C(O)COc1cccc(CN2CCC[C@@H]2c2nc(-c3ccccc3)c(-c3ccccc3)o2)c1 |
|  | 50 |  | 0.06 | O=C([O-])COc1cccc(C[C@@H]2CCCC=C2c2nc(-c3ccccc3)c(-c3ccccc3)o2)c1.[Na+] |
